Reference: patent US9234168B2, “Compositions containing amino acids, phosphate and manganese and their uses” (The Henry M. Jackson Foundation for the Advancement of …, priority 2010, dated 2016)

Legend:
E. coli = assay type: cell-based, Escherichia coli; details: 3 kGy; TGY supplemented with 1 μM Mn^2+, 13 mM phosphate, 3 mM uridine or 384 mM (3%) DMSO individually
Experimental: FIG. 3 depicts the survival curves of E. coli exposed to acute IR and grown in the presence of various supplements: TGY, standard peptide-rich growth medium; DMSO, dimethyl sulfoxide; UMnP, 3 mM uridine/1 μM Mn^2+/13 mM PiB (phosphate buffer).
Individually and in combination, the radioprotective properties of Mn^2+, phosphate, uridine and DMSO were determined using E. coli grown in TGY medium; TGY is a peptide-rich medium based on yeast extract, and contains approximately 200 nM Mn.

bacterial cell culture = test: Radioprotection of a bacterial cell culture; assay type: cell-based; details: agent alone
Text: (§1) Applicants have shown that adenosine alone and Mn(II) alone are radioprotective […] for a mammalian cell line and for a bacterial cell culture.

mammalian cell line = test: Radioprotection of a mammalian cell line; assay type: cell-based; details: agent alone
Text: as §1

Row | Molecule | increase of the resistance of E. coli (E. coli) | radioprotection of a bacterial cell culture (bacterial cell culture) | radioprotection of a mammalian cell line (mammalian cell line)
1 | C[S+](C)[O-] [DMSO, dimethyl sulfoxide] | 50 times | – | –
2 | [Mn+2] [Mn^2+] | did not increase the resistance | radioprotective | radioprotective
3 | Nc1ncnc2c1ncn2[C@@H]1O[C@H](CO)[C@@H](O)[C@H]1O [adenosine] | – | radioprotective | radioprotective
4 | O=c1ccn([C@@H]2O[C@H](CO)[C@@H](O)[C@H]2O)c(=O)[nH]1 [uridine] | 50 times | – | –
5 | phosphate | 800 times | – | –
